Test results reported in patent US20250136558A1, “PYRAZINE COMPOUNDS AS IRREVERSIBLE INHIBITORS OF FLT3” (BIOMEA FUSION, INC., priority 2021, published 2025).

Columns and labels:
Type in all cases: cell-based
[1] = tested on: MV-4-11; assay: Proliferation inhibition (CellTiter-Glo) in MV-4-11 cells; details: Homo sapiens, MV4-11, 96 h, MV-4-11 AML cells, homozygous FLT3-ITD, IC50 (4 days)
From the text: (§1) The Proliferation Inhibitory Effect was Investigated in Human AML Cell Lines MOLM-13 (AddexBio: C0003003) [REF: Pubmed: 9305600] and MV-4-11 (ATCC: CRL-9591) [REF PMID: 3496132], and CML cell line […] (ATCC: CRL-3343) [REF PMID: 163658]. Molm-13 is heterozygous for FLT3-ITD mutation, while MV4-11 is homozygous for FLT3-ITD [PMID: 12529668]. […] Cells were maintained in RPMI-1640 medium (ThermoFisher catalog no. 61870036) supplemented with 10% of Heat Inactivated FBS (ThermoFisher catalog no.A31605) and 1% Pen-Strep (Thermofisher catalog no. 10378016) and cultured at 37° C. in a humidified incubator with 5% CO2. Cell lines were […], and the cells were maintained in a range 70%-80% confluency.
(§2) ATP is present in all metabolically active cells and is considered as a marker for cell viability and proliferation. Metabolic cell activity was determined using the CellTiter-Glo kit (Promega catalog no. G7572), an ATP monitoring system based on the production of luminescence by the reaction of ATP with added UltraGlo® recombinant luciferase (Kawano et al., 2016, PLOS One, 8; 11(7):e0158888), according to the supplier's experimental recommendations. The assay was based on a 96 well plate format.
(§3) Test compounds were dissolved at 10 mM in DMSO (Sigma catalog no. D8418; purity 299.9%) and stored at −20° C. Eight concentrations of test compound were assessed in duplicate in an individual test occasion in parallel in the selected cell lines. Gilteratinib and FF-10101 were used as reference compounds and tested in duplicate at eight concentrations. 100% of proliferation is represented by the untreated cells (0.2% DMSO).
(§4) On the day of the experiment (TO), cells were quantified with the cell viability analyser NucleoCounter (Chemometec NC-200) and diluted with fresh medium to obtain the cell density of about 10,000 cells per 200 μL medium. 200 μL of cell suspension were added into wells in the 96 well plate.
(§5) After 2 hours from seeding cells, compounds were added using a D300e compound dispenser (Life Sciences Tecan D300) at desired concentrations with shaking between each compound dispensed. Cell plates containing 200 μL/well suspension were incubated at 37° C. in a humidified incubator with […].
(§6) […] Contents were mixed for 5 min on an orbital shaker to induce cell lysis, and then incubated at room temperature for an additional 10 min in the dark to stabilize the luminescent signal. Luminescence was read by using a GloMax GM300 plate reader (Promega) using the luminescence for 96 well plate standard protocol.
(§7) Results were analysed by GraphPad (Prism) and IC50 values were calculated by non-linear regression using four parameter-logistic equation.

[2] = tested on: K-562; assay: Proliferation inhibition (CellTiter-Glo) in K-562 cells; details: Homo sapiens, K562, 96 h, K-562 CML cells, no FLT3 mutations, IC50 (4 days)
From the text: as §1, §2, §3, §4, §5, §6, §7

[3] = tested on: MOLM-13; assay: Proliferation inhibition (CellTiter-Glo) in MOLM-13 cells; details: Homo sapiens, 96 h, MOLM-13 AML cells, heterozygous FLT3-ITD, IC50 (4 days)
From the text: as §1, §2, §3, §4, §5, §6, §7

Structure (SMILES)	IC50 [1] [nM]	IC50 [2] [nM]	IC50 [3] [nM]
CC#CC(=O)N(C)CCCC(=O)NCCc1cc(Nc2nc(NC3CCOCC3)c(CC)nc2C(N)=O)cc(OC)c1 [Compound 33, 3-[3-[2-[4-[but-2-ynoyl(methyl)amino]butanoylamino]ethyl]-5-methoxy-anilino]-6-ethyl-5-(tetrahydropyran-4-ylamino)pyrazine-2-carboxamide]	10 to 100	> 500	10 to 100
CC#CC(=O)N(C)CCC(=O)NCCc1cc(Nc2nc(NC3CCOCC3)c(CC)nc2C(N)=O)cc(OC)c1 [Compound 35, 3-[3-[2-[3-[but-2-ynoyl(methyl)amino]propanoylamino]ethyl]-5-methoxy-anilino]-6-ethyl-5-(tetrahydropyran-4-ylamino)pyrazine-2-carboxamide]	10 to 100	> 500	10 to 100
C=CC(=O)N(C)[C@@H](C)C(=O)NCCNc1cc(Nc2nc(NC3CCOCC3)c(CC)nc2C(N)=O)ccn1 [Compound 40, 6-ethyl-3-[[2-[2-[[(2S)-2-[methyl(prop-2-enoyl)amino]propanoyl]amino]ethylamino]-4-pyridyl]amino]-5-(tetrahydropyran-4-ylamino)pyrazine-2-carboxamide]	1 to 10	> 500	1 to 10
C=CS(=O)(=O)N(C)[C@@H](C)C(=O)NCCNc1cc(Nc2nc(NC3CCOCC3)c(CC)nc2C(N)=O)ccn1 [Compound 41, 6-ethyl-3-[[2-[2-[[(2S)-2-[methyl(vinylsulfonyl)amino]propanoyl]amino]ethylamino]-4-pyridyl]amino]-5-(tetrahydropyran-4-ylamino)pyrazine-2-carboxamide]	10 to 100	> 500	10 to 100
CC#CC(=O)NCCC(=O)NCCc1cc(Nc2nc(NC3CCOCC3)c(CC)nc2C(N)=O)cc(OC)c1 [Compound 101, 3-[3-[2-[3-(but-2-ynoylamino)propanoylamino]ethyl]-5-methoxy-anilino]-6-ethyl-5-(tetrahydropyran-4-ylamino)pyrazine-2-carboxamide]	10 to 100	> 500	10 to 100
C=CC(=O)N1CCC(C(=O)Nc2cccc(Nc3nc(NC4CCOCC4)c(CC)nc3C(N)=O)c2)CC1 [Compound 102, 6-ethyl-3-[3-[(1-prop-2-enoylpiperidine-4-carbonyl)amino]anilino]-5-(tetrahydropyran-4-ylamino)pyrazine-2-carboxamide]	10 to 100	> 500	10 to 100
CC#CC(=O)N(C)[C@@H](C)C(=O)NCCOc1cccc(Nc2nc(NC3CCOCC3)c(CC)nc2C(N)=O)c1 [Compound 104, 3-[3-[2-[[(2S)-2-[but-2-ynoyl(methyl)amino]propanoyl]amino]ethoxy]anilino]-6-ethyl-5-(tetrahydropyran-4-ylamino)pyrazine-2-carboxamide]	1 to 10	> 500	1 to 10
C=CC(=O)N1CC(CC(=O)Nc2cccc(Nc3nc(NC4CCOCC4)c(CC)nc3C(N)=O)c2)C1 [Compound 105, 6-ethyl-3-[3-[[2-(1-prop-2-enoylazetidin-3-yl)acetyl]amino]anilino]-5-(tetrahydropyran-4-ylamino)pyrazine-2-carboxamide]	1 to 10	> 500	10 to 100
C=CC(=O)NCCN1CCc2ccc(Nc3nc(NC4CCOCC4)c(CC)nc3C(N)=O)cc2C1=O [Compound 106]	10 to 100	> 500	10 to 100
C=CC(=O)N(C)[C@@H](C)C(=O)NCC#Cc1cc(Nc2nc(NC3CCOCC3)c(CC)nc2C(N)=O)cc(OC)c1 [Compound 107, 6-ethyl-3-[3-methoxy-5-[3-[[(2S)-2-[methyl(prop-2-enoyl)amino]propanoyl]amino]prop-1-ynyl]anilino]-5-(tetrahydropyran-4-ylamino)pyrazine-2-carboxamide]	1 to 10	> 500	1 to 10
CC#CC(=O)N(C)[C@@H](C)C(=O)NCC#Cc1cc(Nc2nc(NC3CCOCC3)c(CC)nc2C(N)=O)cc(OC)c1 [Compound 108, 3-[3-[3-[[(2S)-2-[but-2-ynoyl(methyl)amino]propanoyl]amino]prop-1-ynyl]-5-methoxy-anilino]-6-ethyl-5-(tetrahydropyran-4-ylamino)pyrazine-2-carboxamide]	1 to 10	> 500	1 to 10

The next lines start with the values.

IC50 [1] [nM]	IC50 [2] [nM]	IC50 [3] [nM]	Structure (SMILES)
< 1	> 500	1 to 10	C#CC(=O)NCCC(=O)NCCc1cc(Nc2nc(NC3CCOCC3)c(CC)nc2C(N)=O)cc(OC)c1 [Compound 31, 6-Ethyl-3-((3-methoxy-5-(2-(3-propiolamidopropanamido)ethyl)phenyl)amino)-5-((tetrahydro-2H-pyran-4-yl)amino)pyrazine-2-carboxamide]
< 1	> 500	1 to 10	C#CC(=O)N(C)CCCC(=O)NCCc1cc(Nc2nc(NC3CCOCC3)c(CC)nc2C(N)=O)cc(OC)c1 [Compound 32, 6-ethyl-3-[3-methoxy-5-[2-[4-[methyl(prop-2-ynoyl)amino]butanoylamino]ethyl]anilino]-5-(tetrahydropyran-4-ylamino)pyrazine-2-carboxamide]
1 to 10	> 500	10 to 100	C=CC(=O)N(C)CCC(=O)NCCc1cc(Nc2nc(NC3CCOCC3)c(CC)nc2C(N)=O)cc(OC)c1 [Compound 34, 6-Ethyl-3-((3-methoxy-5-(2-(3-(N-methylacrylamido)propanamido)ethyl)phenyl)amino)-5-((tetrahydro-2H-pyran-4-yl)amino)pyrazine-2-carboxamide]
< 1	> 500	1 to 10	C=CC(=O)N(C)[C@@H](C)C(=O)NCCCOc1cccc(Nc2nc(NC3CCOCC3)c(CC)nc2C(N)=O)c1 [Compound 36, 6-ethyl-3-[3-[3-[[(2S)-2-[methyl(prop-2-enoyl)amino]propanoyl]amino]propoxy]anilino]-5-(tetrahydropyran-4-ylamino)pyrazine-2-carboxamide]
< 1	> 500	< 1	CCc1nc(C(N)=O)c(Nc2cccc(OCCCNC(=O)[C@H](C)N(C)C(=O)/C=C/CN(C)C)c2)nc1NC1CCOCC1 [Compound 37, 3-[3-[3-[[(2S)-2-[[(E)-4-(dimethylamino)but-2-enoyl]-methyl-amino]propanoyl]amino]propoxy]anilino]-6-ethyl-5-(tetrahydropyran-4-ylamino)pyrazine-2-carboxamide]
1 to 10	> 500	10 to 100	C=CC(=O)N(C)[C@@H](C)C(=O)NCCOc1cccc(Nc2nc(NC3CCOCC3)c(CC)nc2C(N)=O)c1 [Compound 38, 6-ethyl-3-[3-[2-[[(2S)-2-[methyl(prop-2-enoyl)amino]propanoyl]amino]ethoxy]anilino]-5-(tetrahydropyran-4-ylamino)pyrazine-2-carboxamide]
< 1	> 500	1 to 10	CCc1nc(C(N)=O)c(Nc2cccc(OCCNC(=O)[C@H](C)N(C)C(=O)/C=C/CN(C)C)c2)nc1NC1CCOCC1 [Compound 39, 3-[3-[2-[[(2S)-2-[[(E)-4-(dimethylamino)but-2-enoyl]-methyl-amino]propanoyl]amino]ethoxy]anilino]-6-ethyl-5-(tetrahydropyran-4-ylamino)pyrazine-2-carboxamide]
< 1	> 500	1 to 10	CCc1nc(C(N)=O)c(Nc2cc(C#CCNC(=O)[C@H](C)N(C)C(=O)/C=C/CN(C)C)cc(OC)c2)nc1NC1CCOCC1 [Compound 103, 3-[3-[3-[[(2S)-2-[[(E)-4-(dimethylamino)but-2-enoyl]-methyl-amino]propanoyl]amino]prop-1-ynyl]-5-methoxy-anilino]-6-ethyl-5-(tetrahydropyran-4-ylamino)pyrazine-2-carboxamide]
